In patent publication US4454314A, “Antibacterial mycaminosyl tylonolide and related macrolide derivatives” (Pfizer Inc., priority 1982, dated 1984):
≈ marks a conversion by molar mass, not a printed value. Read-outs that look alike come from different tables or passages of the source.

Columns and labels:
[1] = tested on: infections by sensitive bacteria; assay: In vivo activity against acute experimental infections in mice (PD50); conditions: Mus musculus, sc; subcutaneous; mice infected intraperitoneally, at least one LD100; organism not given; read-out: PD50 (dose which protects 50% of the animals from infection)
Text: In determining such activity, acute experimental infections are produced in mice by the intraperitoneal inoculation of the mice with a standardized culture of the test organism suspended in 5 percent hog gastric mucin. Infection severity is standarized so that the mice receive at least one LD100 dose of the organism (LD100 : the minimum inoculum of organism required to consistently kill 100 percent of the infected, nontreated control mice). The test compound is then subcutaneously or orally administered at various dosage levels to groups of infected mice. At the end of the test, the activity of the mixture is assessed by counting the number of survivors among treated animals at a given dose. Activity is expressed as the percentage of animals which survive at a given dose, or calculated as a PD50 (dose which protects 50% of the animals from infection).

[2] = tested on: Staph. aur. 5; assay: In vitro antibacterial activity (MIC), BHI agar; type: cell-based; conditions: 18 hours at 37° C., read-out: Minimum Inhibitory Concentration (MIC)
Method: (§1) The procedure which is followed is the one recommended by the International Collaborative Study on Antibiotic Sensitivity Testing [Ericcson and Sherris, Acta. Pathologica et Microbiologia Scandinav, Supp. 217, Sections A and B: 64-68 (1971)], and employs brain heart infusion (BHI) agar and the inocula replicating device. Overnight growth tubes are diluted 100 fold for use as the standard inoculum (20,000-10,000 cells in approximately 0.002 ml are placed on the agar surface; 20 ml of BHI agar/dish). Twelve 2 fold dilutions of the test compound are employed, with initial concentration of the test drug being 200 mcg/ml. Single colonies are disregarded when reading plates after 18 hours at 37° C. The susceptibility (MIC) of the test organism is accepted as the lowest concentration of compound capable of producing complete inhibition of growth as judged by the naked eye. A comparison of the in vitro activity of various compounds of the formulae (I) and (II) with tylonolide is recorded in Table 1.

[3] = tested on: Staph. epi. 87; assay: In vitro antibacterial activity (MIC), BHI agar; type: cell-based; conditions: read-out: Minimum Inhibitory Concentration (MIC)
Method: as §1

[4] = tested on: E. coli 470; assay: In vitro antibacterial activity (MIC), BHI agar; type: cell-based; conditions: read-out: Minimum Inhibitory Concentration (MIC)
Method: as §1

[5] = tested on: Staph. aur. 52; assay: In vitro antibacterial activity (MIC), BHI agar; type: cell-based; conditions: 18 hours at 37° C., read-out: Minimum Inhibitory Concentration (MIC)
Method: as §1

[6] = tested on: Strep. pyog. 203; assay: In vitro antibacterial activity (MIC), BHI agar; type: cell-based; conditions: 18 hours at 37° C., read-out: Minimum Inhibitory Concentration (MIC)
Method: as §1

[7] = tested on: Staph. epi. 111; assay: In vitro antibacterial activity (MIC), BHI agar; type: cell-based; conditions: 18 hours at 37° C., read-out: Minimum Inhibitory Concentration (MIC)
Method: as §1

[8] = tested on: Strep. faec. 6; assay: In vitro antibacterial activity (MIC), BHI agar; type: cell-based; conditions: 18 hours at 37° C., read-out: Minimum Inhibitory Concentration (MIC)
Method: as §1

[9] = tested on: Staph. aur. 400; assay: In vitro antibacterial activity (MIC), BHI agar; type: cell-based; conditions: 18 hours at 37° C., read-out: Minimum Inhibitory Concentration (MIC)
Method: as §1

[10] = tested on: Strep. pneum. 12; assay: In vitro antibacterial activity (MIC), BHI agar; type: cell-based; conditions: 18 hours at 37° C., read-out: Minimum Inhibitory Concentration (MIC)
Method: as §1

[11] = tested on: Staph. epi. 126; assay: In vitro antibacterial activity (MIC), BHI agar; type: cell-based; conditions: 18 hours at 37° C., read-out: Minimum Inhibitory Concentration (MIC)
Method: as §1

[12] = tested on: Neiss. sic.; assay: In vitro antibacterial activity (MIC), BHI agar; type: cell-based; conditions: 18 hours at 37° C., read-out: Minimum Inhibitory Concentration (MIC)
Method: as §1

[13] = tested on: Past. mult. 1; assay: In vitro antibacterial activity (MIC), BHI agar; type: cell-based; conditions: 18 hours at 37° C., read-out: Minimum Inhibitory Concentration (MIC)
Method: as §1

[14] = tested on: Bac. sub. 1; assay: In vitro antibacterial activity (MIC), BHI agar; type: cell-based; conditions: 18 hours at 37° C., read-out: Minimum Inhibitory Concentration (MIC)
Method: as §1

[15] = Escherichia coli, E. coli 470, BHI agar, 18 hours at 37° C.

SMILES: CCC1OC(=O)CC(O)C(C)C(OC2OC(C)C(O)C(N(C)C)C2O)C(CC=O)CC(C)C(=O)C=CC(C)=CC1CO [(a), 5-(3,6-dideoxy-3-dimethylamino-beta-D-glucopyrnosyloxy)-6-formylmethyl-3-hydroxy-14-hydroxymethyl-4,8,12-trimethyl-9-oxo-10,12-heptadecadien-15-olide, reference compound]
- ED50 [1]: 3.12 mg/kg
- MIC [2]: 0.78 µg/mL (≈ 1.3 µM)
- MIC ([3]; 18 h): 3.12 µg/mL (≈ 5.22 µM)
- MIC ([4]; Escherichia coli, 470, 18 h): 3.12 µg/mL (≈ 5.22 µM)
- MIC [5]: 0.78 µg/mL (≈ 1.3 µM)
- MIC [6]: 0.39 µg/mL (≈ 0.652 µM)
- MIC [7]: 1.56 µg/mL (≈ 2.61 µM)
- MIC [8]: 0.78 µg/mL (≈ 1.3 µM)
- MIC [9]: 1.56 µg/mL (≈ 2.61 µM)
- MIC [10]: 0.1 µg/mL (≈ 0.167 µM)
- MIC [11]: 0.78 µg/mL (≈ 1.3 µM)
- MIC [12]: 6.25 µg/mL (≈ 10.5 µM)
- MIC [13]: 1.56 µg/mL (≈ 2.61 µM)

SMILES: CCC1OC(=O)CC(O)C(C)C(OC2OC(C)C(O)C(N(C)C)C2O)C(CC=O)CC(C)C(=O)C=CC(C)=CC1COS(=O)(=O)c1ccc(C)cc1 (stereo not shown) [(b)]
- ED50 [1]: 19 mg/kg
- MIC [2]: 0.78 µg/mL (≈ 1.04 µM)
- MIC [5]: 0.78 µg/mL (≈ 1.04 µM)
- MIC [6]: 0.2 µg/mL (≈ 0.266 µM)
- MIC [7]: 1.56 µg/mL (≈ 2.07 µM)
- MIC [8]: 0.39 µg/mL (≈ 0.519 µM)
- MIC [9]: 0.78 µg/mL (≈ 1.04 µM)
- MIC [11]: 1.56 µg/mL (≈ 2.07 µM)
- MIC [12]: 1.56 µg/mL (≈ 2.07 µM)
- MIC [13]: 3.12 µg/mL (≈ 4.15 µM)
- MIC [14]: 0.78 µg/mL (≈ 1.04 µM)

SMILES: CCC1OC(=O)CC(O)C(C)C(OC2OC(C)C(O)C(N(C)C)C2O)C(CC=NN(C)C)CC(C)C(=O)C=CC(C)=CC1COS(=O)(=O)c1ccc(C)cc1 (stereo not shown) [(c)]
- ED50 [1]: 50 mg/kg
- MIC [2]: 0.1 µg/mL (≈ 0.126 µM)
- MIC [5]: 0.2 µg/mL (≈ 0.252 µM)
- MIC [6]: 0.05 µg/mL (≈ 0.063 µM)
- MIC [7]: 0.1 µg/mL (≈ 0.126 µM)
- MIC [8]: 0.1 µg/mL (≈ 0.126 µM)
- MIC [9]: 0.2 µg/mL (≈ 0.252 µM)
- MIC [11]: 1.56 µg/mL (≈ 1.96 µM)
- MIC [12]: 0.78 µg/mL (≈ 0.982 µM)
- MIC [13]: 3.12 µg/mL (≈ 3.93 µM)
- MIC [14]: 0.2 µg/mL (≈ 0.252 µM)

SMILES: CCC1OC(=O)CC(O)C(C)C(OC2OC(C)C(O)C(N(C)C)C2O)C(CC=O)CC(C)C(=O)C=CC(C)=CC1CI (stereo not shown) [(d)]
- MIC [2]: 0.39 µg/mL (≈ 0.551 µM)
- MIC [5]: 0.39 µg/mL (≈ 0.551 µM)
- MIC [6]: 0.1 µg/mL (≈ 0.141 µM)
- MIC [7]: 0.78 µg/mL (≈ 1.1 µM)
- MIC [8]: 3.12 µg/mL (≈ 4.41 µM)
- MIC [9]: 1.56 µg/mL (≈ 2.2 µM)
- MIC [11]: 6.25 µg/mL (≈ 8.83 µM)
- MIC [12]: 0.78 µg/mL (≈ 1.1 µM)
- MIC [14]: 0.78 µg/mL (≈ 1.1 µM)

SMILES: CCC1OC(=O)CC(O)C(C)C(OC2OC(C)C(O)C(N(C)C)C2O)C(CC=NN(C)C)CC(C)C(=O)C=CC(C)=CC1CI (stereo not shown) [(e)]
- ED50 [1]: > 50 mg/kg
- MIC [2]: 0.2 µg/mL (≈ 0.267 µM)
- MIC [5]: 0.2 µg/mL (≈ 0.267 µM)
- MIC [6]: 0.1 µg/mL (≈ 0.133 µM)
- MIC [7]: 0.2 µg/mL (≈ 0.267 µM)
- MIC [8]: 0.39 µg/mL (≈ 0.52 µM)
- MIC [9]: 0.2 µg/mL (≈ 0.267 µM)
- MIC [11]: 0.78 µg/mL (≈ 1.04 µM)
- MIC [12]: 0.39 µg/mL (≈ 0.52 µM)
- MIC [13]: 1.56 µg/mL (≈ 2.08 µM)
- MIC [14]: 0.1 µg/mL (≈ 0.133 µM)

SMILES: CCC1OC(=O)CC(OC(C)=O)C(C)C(OC2OC(C)C(O)C(N(C)C)C2O)C(CC=O)CC(C)C(=O)C=CC(C)=CC1CN(C)C (stereo not shown) [(f)]
- MIC [2]: 3.12 µg/mL (≈ 4.68 µM)
- MIC [5]: 3.12 µg/mL (≈ 4.68 µM)
- MIC [6]: 0.39 µg/mL (≈ 0.585 µM)
- MIC [7]: 1.56 µg/mL (≈ 2.34 µM)
- MIC [8]: 6.25 µg/mL (≈ 9.37 µM)
- MIC [9]: 3.12 µg/mL (≈ 4.68 µM)
- MIC [11]: 1.56 µg/mL (≈ 2.34 µM)
- MIC [12]: 3.12 µg/mL (≈ 4.68 µM)
- MIC [13]: 6.25 µg/mL (≈ 9.37 µM)
- MIC [14]: 0.78 µg/mL (≈ 1.17 µM)

SMILES: CCC1OC(=O)CC(O)C(C)C(OC2OC(C)C(O)C(N(C)C)C2O)C(CC=O)CC(C)C(=O)C=CC(C)=CC1CCl (stereo not shown) [(g)]
- ED50 [1]: 13 mg/kg
- MIC [2]: 0.78 µg/mL (≈ 1.27 µM)
- MIC ([3]; Staph. epi. 87, BHI agar, 18 hours at 37° C.): 25 µg/mL (≈ 40.6 µM)
- MIC [4, 15]: 0.78 µg/mL (≈ 1.27 µM)
- MIC [5]: 0.78 µg/mL (≈ 1.27 µM)
- MIC [6]: 0.39 µg/mL (≈ 0.633 µM)
- MIC [7]: 0.2 µg/mL (≈ 0.325 µM)
- MIC [8]: 0.78 µg/mL (≈ 1.27 µM)
- MIC [9]: 0.39 µg/mL (≈ 0.633 µM)
- MIC [10]: 0.02 µg/mL (≈ 0.0325 µM)
- MIC [11]: 0.78 µg/mL (≈ 1.27 µM)
- MIC [12]: 1.56 µg/mL (≈ 2.53 µM)
- MIC [13]: 1.56 µg/mL (≈ 2.53 µM)
- MIC [14]: 0.1 µg/mL (≈ 0.162 µM)

SMILES: CCC1OC(=O)CC(O)C(C)C(OC2OC(C)C(O)C(N(C)C)C2O)C(CC=O)CC(C)C(=O)C=CC(C)=CC1CN(C)C (stereo not shown) [(h)]
- ED50 [1]: 2.4 mg/kg
- MIC [2]: 0.78 µg/mL (≈ 1.25 µM)
- MIC [4, 15]: 1.56 µg/mL (≈ 2.5 µM)
- MIC [5]: 1.56 µg/mL (≈ 2.5 µM)
- MIC [6]: 0.2 µg/mL (≈ 0.32 µM)
- MIC [7]: 0.78 µg/mL (≈ 1.25 µM)
- MIC [8]: 3.12 µg/mL (≈ 4.99 µM)
- MIC [9]: 1.56 µg/mL (≈ 2.5 µM)
- MIC [10]: 0.39 µg/mL (≈ 0.624 µM)
- MIC [11]: 3.12 µg/mL (≈ 4.99 µM)
- MIC [12]: 12.5 µg/mL (≈ 20 µM)
- MIC [13]: 1.56 µg/mL (≈ 2.5 µM)
